Assay [1] concerns Dd2 (chloroquine resistant strain of P. falciparum). Nature of the assay: SYBR Green I antiplasmodial assay, strain Dd2. The format is cell-based, Plasmodium falciparum. The settings on record: strain Dd2. An excerpt: Bennett T. N.; Paguio, M.; Gligorijevic, B.; Seudieu, C.; Kosar, A. D.; Davidson, E.; Roepe, P. D. Novel, rapid, and inexpensive cell-based quantification of antimalarial drug efficacy. Antimicrob. Agents Chemother. 2004, 48, 1807-1810; Smilkstein, M.; Sriwilaijaroen, N.; Kelly, J. X.; Wilairat, P.; Riscoe, M. Simple and inexpensive fluorescence-based technique for high-throughput antimalarial drug screening. Antimicrob. Agents Chemother. 2004, 48, 1803-1806; and Johnson, J. D.; Dennull, R. A.; Gerena, L.; Lopez-Sanchez, M.; Roncal, N. E.; Waters, N.C. Assessment and continued validation of the malaria SYBR green I-based fluorescence assay for use in malaria drug screening. Antimicrob. Agents Chemother. 2007, 51, 1926-1933. […] Drake, N. L.; Creech, H. J.; Garman, J. A.; Haywood, S. T.; Peck, R. M.; van Hook, J. O.; Walton, E. Synthetic antimalrials. The preparation of certain 4-aminoquinolines. J. Am. Chem. Soc. […] Trans. R. Soc. Trop. Med. Hyg. […] J. Parasitol. 1983, 69, 97-105. The selectivity index provides a quantitative measure of the antimalarial activity against CQR strains relative to that against sensitive strains and thus indicates promising drug discovery leads. […] This can be combined with the introduction of a third basic amino function which should further favor accumulation of the drug within the acidic food vacuole of the parasite.
The antiplasmodial activity of these compounds was measured versus a CQS (HB3) and a CQR (Dd2) strain using a standardized, inexpensive assay based on SYBR Green I intercalation. Bennett T. N.; Paguio, M.; Gligorijevic, B.; Seudieu, C.; Kosar, A. D.; Davidson, E.; Roepe, P. D. Antimicrob. Agents Chemother. 2004, 48, 1807-1810; Smilkstein, M.; Sriwilaijaroen, N.; Kelly, J. X.; Wilairat, P.; Riscoe, M. Antimicrob. Agents Chemother. 2004, 48, 1803-1806; and Johnson, J. D.; Dennull, R. A.; Gerena, L.; Lopez-Sanchez, M.; Roncal, N. E.; Waters, N.C. Antimicrob. Agents Chemother. 2007, 51, 1926-1933. […] De, D.; Krogstad, F. M.; Cogswell, F. B.; Krogstad, D. J. Am. J. Trop. Med. Hyg. 1996, 55, 579-583. […] The basic tertiary amino function in the side chain is commonly believed to be crucial for the accumulation of the drug within the acidic food DV.
Drug activities were assessed and IC50 were quantified essentially as described previously. Delarue, S.; Girault, S.; Maes, L.; Debreu-Fontaine, M. A.; Labaeid, M.; Grellier, P.; Sergheraert, C. Synthesis and in vitro and in vivo antimalarial activity of new 4-anilinoquinolines. J. Med. Chem. 2001, 44, 2827-2833; and O'Neill, P. M.; Willock, D. J.; Hawley, S. R.; Bray, P. G.; Storr, R. C.; Ward, S. A.; Park, B. K. Synthesis, antimalarial activity, and molecular modeling of tebuquine analogues. J. Med. Chem. 1997, 40, 437-448. The aminoquinolines were diluted using complete media under sterile conditions and plated in a 96 well plate format. Sorbitol synchronized cultures were utilized with >95% of the parasites at the ring stage. Cultures were diluted to give a working stock of 0.5% parasitemia and 2% hematocrit (final hematocrit 1% & 0.5% Parasitemia). The plates were incubated for 72 h at 37° C. After 72 h, 50 μL of 10×SYBR green I dye was added to each well, and the plate was incubated for 1 h at 37° C. Fluorescence was measured at 530 nm (490 nm excitation) using a spectra geminiEM plate reader. Data analysis was performed using sigma plot 9.0 software after downloading data in Excel format.

Another assay relates to monomeric heme. Nature of the assay: Heme affinity measurement, monomeric heme. The settings on record: acidic 40% DMSO. It counts as binding. How it is done: To test whether binding to Hz precursors is also altered for the 4S and 4O derivatives, binding constants were measured as previously described for both μ-oxo dimeric and monomeric heme (FIG. 25). […] J. Am. Chem. Soc. 1988, 110, 4391-4395; Egan, T. J.; Mavuso, W. W.; Ross, D. C.; Marques, H. M. Thermodynamic factors controlling the interaction of quinoline antimalarial drugs with ferriprotoporphyrin IX. J. Inorg. Biochem. 1997, 68, 137-145; and Egan, T. J.; Ncokazi, K. K. Effects of solvent composition and ionic strength on the interaction of quinoline antimalarials with ferriprotoporphyrin IX. J. Inorg. Biochem. 2004, 98, 144-152. Due to the instability of monomeric heme in aqueous solution, the affinity to monomer measured by conventional absorbance experiments can only be estimated using 40% DMSO in water as solvent. Egan, T. J.; Ncokazi, K. K. Effects of solvent composition and ionic strength on the interaction of quinoline antimalarials with ferriprotoporphyrin IX. J. Inorg. Biochem. 2004, 98, 144-152. At appropriately acidic solution pH (≦5.0) FPIX heme is primarily monomeric, whereas at pH 7, appreciable dimer is formed. As shown (FIG. 25), CQ and compounds 88, 93, and 98 all have poor affinity for monomeric heme in acidic 40% DMSO. To further test if CQ interacts with monomeric heme, T1 measurements of the CQ protons were made with samples containing 10 mM CQ and 2 mM hemin chloride in 40% DMSO at pH 5.0. Although the lines are broadened in this solution due to paramagnetic susceptibility, the measured T1's indicate only weak paramagnetic relaxation. For example, the measured T1 for CQ proton 1 in this sample is 0.70 s, whereas at pH 7.0 the T1 for the same proton is 0.039 s.
To measure affinity for monomeric heme, 1.2 mM stock solutions of hemin (sodium salt from Sigma-Aldrich) were prepared in DMSO and stored as […] aliquots. 4.8 μM working solutions were prepared in 40% DMSO/phosphate buffer (fresh stocks prepared daily). Stock solutions of CQ and CQ analogues (diphosphate or dihydrochloride salts) were prepared in 40% DMSO/phosphate buffer and used for the titration experiments (all drugs dilutions were prepared in the same buffer).
1.5 mL cuvettes containing freshly prepared samples of 4.8 μM heme were titrated with increasing concentrations (0-50 μM) of drug. Following each addition, the sample was mixed and heme absorbance then recorded at 402 nm. Control experiments were performed by titrating 4.8 μM heme with similar volumes of solvent and no drug present. […] The absorbance peak analysis was done using Microsoft excel and Ka were extracted from the ΔAbs402 plots via Scatchard analysis using Microsoft Excel and Sigma plot 9.0.1 software.

Another assay concerns μ-oxo dimeric heme. Nature of the assay: Heme affinity measurement, μ-oxo dimeric heme. The format is binding. The settings on record: aqueous solution. As to the method:
1.5 mL cuvettes containing freshly prepared samples of 4.8 μM heme were titrated with increasing concentrations (0-50 μM) of drug. Following each addition, the sample was mixed and heme absorbance then recorded at 402 nm. Control experiments were performed by titrating 4.8 μM heme with similar volumes of solvent and no drug present. To measure affinity for μ-oxo dimeric heme, the procedure was similar except hemin was first converted to dimeric form in mild alkaline solution, followed by titration to pH 7.5 using Hepes buffer. The absorbance peak analysis was done using Microsoft excel and Ka were extracted from the ΔAbs402 plots via Scatchard analysis using Microsoft Excel and Sigma plot 9.0.1 software.

Turning to `CCN(CC)CCCCOc1ccnc2cc(Cl)ccc12` [compound 93, O-(7-Chloro-4-quinolyl)-4-(N,N-diethylamino)butanol], in assay [1], the “fold lower IC50 relative to 98” value is 4 fold. The “affinity for monomeric heme” value in the assay with monomeric heme was “poor affinity”. Besides, the “affinity (association constant Ka) vs. μ-oxo dimer” value with μ-oxo dimeric heme is on record as “quite similar”.

The record behind these values is patent publication US20110045100A1, “Antimalarial Quinolines and Methods of Use Thereof” (GEORGETOWN UNIVERSITY, priority 2008, published 2011).
